Reference: patent publication US20230158124A1, “DRUG, FOOD AND APPLICATION OF ANTI-CORONAVIRUS INFECTION” (priority 2020, published 2023)

Assays:
novel coronavirus = assay: In vitro inhibition of cytopathic effect caused by novel coronavirus in Vero E6 cells (CCK8); format: cell-based, COVID-19 novel coronavirus; details: for inhibition of cytopathic effect caused by the novel coronavirus (in words): Vero E6, summary of Table 1
TNF-α mRNA = format: cell-based, African green monkey; details: 350 μg/mL; virus control 3.61 ± 0.29, blank 1.01 ± 0.06
IL-6 mRNA = format: cell-based, African green monkey; details: 350 μg/mL; virus control 7.68 ± 0.50, blank 1.08 ± 0.07
[1] = test system: guinea pig inhaling smoke; assay: Airway resistance and lung function of guinea pig inhaling smoke; format: in vivo; details: once daily 4 weeks
Method: A smoked model is a classic animal modeling method of chronic obstructive pulmonary disease. After inhaling smoke for a long time, the animal may suffer from increase of mucus secretion, airway obstruction, and decrease of lung function. The effect of lysozyme on the airway obstruction was evaluated by the modeling method.
Male Hartley guinea pigs with weights ranging from 400 g to 500 g were randomly divided into a blank group, a model group, a lysozyme oral administration group (200 mg/kg), a lysozyme inhalation group (2 mg/kg), a lysozyme+monoammonium glycyrrhizinate inhalation group (2 mg/kg+0.1 mg/kg), a lysozyme+monopotassium glycyrrhizinate oral administration group I (200 mg/kg+20 mg/kg), and a lysozyme+monopotassium glycyrrhizinate oral administration group II (200 mg/kg+40 mg/kg), with eight animals in each group.
The animals in each group except the blank group were exposed to cigarette smoke by using a smoke exposure system inhaled only through nose and mouth, so that the animals inhaled smoke of five cigarettes within 40 minutes every day, for 5 days every week, and for 12 consecutive weeks.
Lysozyme and monoammonium glycyrrhizinate used for inhalation administration were respectively crushed into powder with a particle size less than […]. Then lysozyme and monopotassium glycyrrhizinate used for oral administration were respectively dissolved in normal saline.
The animals in each group except the blank group and the model group were administrated once every day for 4 consecutive weeks from the 8t^h week after modeling. The inhalation groups were administrated by a mouth and nose inhalation exposure system, while the oral administration groups were administrated by oral gavage. The blank group and the model group were administrated by oral gavage with normal saline every day.
Airway resistance measurement and the measurement of force expiratory volume in 100ms(millisecond) were performed after administration.
The animals were placed in a double chamber plethysmography system, and a specific airway resistance (sRaw) was measured after the animals were quiet for 10 minutes. The animals were anesthetized by intramuscular injection of ketamine, then a catheter was inserted into the trachea, and the force expiratory volume in 100ms […] was measured by a lung function detection system.

[2] = test system: intestinal barrier dysfunction of mice induced by lipopolysaccharide; assay: Intestinal permeability (serum FITC-glucan) in mice with intestinal barrier dysfunction induced by lipopolysaccharide; format: in vivo; details: 100 mg/kg oral gavage 30 days; model 35.06 ± 5.75, blank 9.40 ± 1.45
Method: Lipopolysaccharide could cause intestinal dysfunction of animals. The protective effects of the lysozyme and the combination containing lysozyme on the intestinal barrier dysfunction of mice induced by the lipopolysaccharide were researched in the test.
Test animals: male C57BL/6 mice with a cleaning degree, and with a weight ranging from 20 g to 25 g.
Grouping and administration of animals: the animals were randomly divided into a blank group, a model group, a lysozyme group (100 mg/kg), a lysozyme+monoammonium glycyrrhizinate group A (100 mg/kg+2 mg/kg), a lysozyme+monoammonium glycyrrhizinate group B (100 mg/kg+10 mg/kg), a lysozyme+monoammonium glycyrrhizinate group C (100 mg/kg+20 mg/kg), and a lysozyme+dipotassium glycyrrhizinate group (100 mg/kg+2 mg/kg), with eight animals in each group. Each drug group was administrated by oral gavage according to the dosage every day, while the blank group and the model group were administrated with normal saline. The administration was continuously performed for 30 days. […]
Measurement of intestinal permeability: animals of each group were administrated by oral gavage with 600 mg/kg FITC-glucan (dissolved in a phosphate buffer), and blood was taken from an eyeball after 4 hours. The content of the FITC-glucan in serum was measured by fluorescence spectrometry (with an excitation wavelength of 480 nm and an emission wavelength of 520 nm).

Occludin mRNA = assay: Expression of intestinal tissue tight junction protein in LPS mice, jejunum, quantitative PCR (occludin); format: in vivo; details: 100 mg/kg, model 0.54 ± 0.09, blank 1.04 ± 0.12
Method: (§1) Grouping and administration of animals: the animals were randomly divided into a blank group, a model group, a lysozyme group (100 mg/kg), a lysozyme+monoammonium glycyrrhizinate group A (100 mg/kg+2 mg/kg), a lysozyme+monoammonium glycyrrhizinate group B (100 mg/kg+10 mg/kg), a lysozyme+monoammonium glycyrrhizinate group C (100 mg/kg+20 mg/kg), and a lysozyme+dipotassium glycyrrhizinate group (100 mg/kg+2 mg/kg), with eight animals in each group. Each drug group was administrated by oral gavage according to the dosage every day, while the blank group and the model group were administrated with normal saline. The administration was continuously performed for 30 days.
(§2) Modeling: after the administration, the animals of each group except the blank group were intraperitoneally injected with 15 mg/kg lipopolysaccharide, and the blank group was injected with the normal saline. The animals were fasted for 12 hours after injection.
(§3) Determination of the expression of intestinal tissue tight junction protein: after the animals were killed, the jejunum tissue sample was taken to extract RNA, and relative expression levels of […] in the tissue were detected by quantitative PCR.

Claudin-1 mRNA = assay: Expression of intestinal tissue tight junction protein in LPS mice, jejunum, quantitative PCR (Claudin-1); format: in vivo; details: 100 mg/kg, model 0.73 ± 0.13, blank 1.07 ± 0.11
Method: as §1, §2, §3

[3] = 1,000 μg/mL, Vero E6, 100TCID50, 4 days
[4] = 2,000 μg/mL, Vero E6, 100TCID50, 4 days

| Molecule | Inhibition rate (%) on cytopathic effect (novel coronavirus; [3]) | Inhibition rate (%) on cytopathic effect (novel coronavirus; [4]) | inhibition of cytopathic effect caused by the novel coronavirus (in words) (novel coronavirus) | Inhibition rate (%) on cytopathic effect (novel coronavirus; 350 μg/mL, Vero E6) | Inhibition rate (%) on cytopathic effect (novel coronavirus; 500 μg/mL, Vero E6, 100TCID50, 4 days) | TNF-α mRNA Relative expression quantity (TNF-α mRNA) | IL-6 mRNA Relative expression quantity (IL-6 mRNA) | Airway resistance ([1]; inhalation, 2 mg/kg) | Force expiratory volume in 100 ms ([1]; inhalation, 2 mg/kg) | Force expiratory volume in 100 ms ([1]; oral administration, 200 mg/kg, model 4.18 ± 1.26, blank 11.86 ± 1.24) | Airway resistance ([1]; oral administration, 200 mg/kg, model 4.72 ± 0.38, blank 1.43 ± 0.24) | Content of FITC-glucan (serum) [2] | Occludin mRNA Relative expression quantity (Occludin mRNA) | Claudin-1 mRNA Relative expression quantity (Claudin-1 mRNA) |
| --- | --- | --- | --- | --- | --- | --- | --- | --- | --- | --- | --- | --- | --- | --- |
| CC1(C)[C@@H](O[C@H]2O[C@H](C(=O)O)[C@@H](O)[C@H](O)[C@H]2O[C@@H]2O[C@H](C(=O)O)[C@@H](O)[C@H](O)[C@H]2O)CC[C@]2(C)[C@H]3C(=O)C=C4[C@@H]5C[C@@](C)(C(=O)O)CC[C@]5(C)CC[C@@]4(C)[C@]3(C)CC[C@@H]12.N [Monoammonium glycyrrhizinate, monoammonium glycyrrhizinate, reference compound] | 23.35 ± 5.43% | 29.42 ± 7.16% | weak inhibition effect |  |  |  |  |  |  |  |  |  |  |  |
| Lysozyme | 46.67 ± 15.28% | 78.33 ± 2.89% | significantly inhibit | 6.67 ± 1.56% | 15.00 ± 8.66% | 3.12 ± 0.26 | 6.78 ± 0.30 | 3.10 ± 0.14 cmH2O · s | 7.68 ± 1.36 mL | 5.79 ± 2.03 mL | 3.79 ± 0.30 cmH2O · s | 27.53 ± 3.21 µg/mL | 0.69 ± 0.07 | 0.79 ± 0.16 |
